Experiments:
[1] = target: Glutamate receptor ionotropic, NMDA 1 (Rattus norvegicus, UniProt P35439)
[2] = target: Voltage-gated inwardly rectifying potassium channel KCNH2 (Homo sapiens, UniProt Q12809); type: functional
[3] = target: Delta-type opioid receptor (Homo sapiens, UniProt P41143)
[4] = target: 5-hydroxytryptamine receptor 2A (Homo sapiens, UniProt P28223); type: functional, cell-based
[5] = target: 5-hydroxytryptamine receptor 2B (Homo sapiens, UniProt P41595); type: functional, cell-based
Chain of 5-hydroxytryptamine receptor 2B (P41595 whole entry): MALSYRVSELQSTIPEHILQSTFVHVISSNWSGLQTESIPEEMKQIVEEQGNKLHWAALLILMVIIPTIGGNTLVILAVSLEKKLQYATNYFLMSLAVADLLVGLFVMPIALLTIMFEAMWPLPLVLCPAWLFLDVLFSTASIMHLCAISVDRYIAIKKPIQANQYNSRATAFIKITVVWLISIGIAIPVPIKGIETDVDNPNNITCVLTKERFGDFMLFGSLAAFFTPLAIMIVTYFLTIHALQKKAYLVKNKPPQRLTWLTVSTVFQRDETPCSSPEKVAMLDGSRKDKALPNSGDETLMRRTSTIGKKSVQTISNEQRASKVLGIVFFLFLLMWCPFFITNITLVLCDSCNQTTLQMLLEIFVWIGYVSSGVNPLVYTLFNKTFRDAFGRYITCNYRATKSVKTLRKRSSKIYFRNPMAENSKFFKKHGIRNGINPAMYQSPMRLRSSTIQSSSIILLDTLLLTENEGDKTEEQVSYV

[6] = target: Vasopressin V1a receptor (Homo sapiens, UniProt P37288)
Chain of Vasopressin V1a receptor (P37288 whole entry): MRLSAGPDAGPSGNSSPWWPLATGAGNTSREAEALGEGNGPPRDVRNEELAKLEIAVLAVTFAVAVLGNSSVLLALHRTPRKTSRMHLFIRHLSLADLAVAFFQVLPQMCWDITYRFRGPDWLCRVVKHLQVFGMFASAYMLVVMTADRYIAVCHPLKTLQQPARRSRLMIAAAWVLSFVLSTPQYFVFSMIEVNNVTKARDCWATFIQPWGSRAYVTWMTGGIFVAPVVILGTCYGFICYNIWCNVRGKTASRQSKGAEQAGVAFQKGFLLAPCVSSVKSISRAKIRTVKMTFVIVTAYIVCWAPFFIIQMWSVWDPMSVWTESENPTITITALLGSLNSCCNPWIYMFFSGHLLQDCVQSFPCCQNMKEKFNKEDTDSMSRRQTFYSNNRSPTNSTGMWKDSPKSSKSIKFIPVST

[7] = target: Motilin receptor (Homo sapiens, UniProt O43193)
Chain of Motilin receptor (O43193 whole entry): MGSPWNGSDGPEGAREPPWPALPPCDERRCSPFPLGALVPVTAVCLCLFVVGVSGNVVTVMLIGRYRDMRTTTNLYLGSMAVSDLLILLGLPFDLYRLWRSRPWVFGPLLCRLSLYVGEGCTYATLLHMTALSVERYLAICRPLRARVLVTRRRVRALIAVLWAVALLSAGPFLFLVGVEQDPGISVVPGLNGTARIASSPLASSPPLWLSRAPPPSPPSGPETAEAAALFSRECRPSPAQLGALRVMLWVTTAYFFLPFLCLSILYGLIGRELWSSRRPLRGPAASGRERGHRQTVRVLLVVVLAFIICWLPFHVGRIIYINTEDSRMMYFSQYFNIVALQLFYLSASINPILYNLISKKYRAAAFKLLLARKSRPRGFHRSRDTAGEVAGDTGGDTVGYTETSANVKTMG

[8] = target: T1, Glucocorticoid receptor (Homo sapiens, UniProt P04150)
T1 sequence (P04150 whole entry): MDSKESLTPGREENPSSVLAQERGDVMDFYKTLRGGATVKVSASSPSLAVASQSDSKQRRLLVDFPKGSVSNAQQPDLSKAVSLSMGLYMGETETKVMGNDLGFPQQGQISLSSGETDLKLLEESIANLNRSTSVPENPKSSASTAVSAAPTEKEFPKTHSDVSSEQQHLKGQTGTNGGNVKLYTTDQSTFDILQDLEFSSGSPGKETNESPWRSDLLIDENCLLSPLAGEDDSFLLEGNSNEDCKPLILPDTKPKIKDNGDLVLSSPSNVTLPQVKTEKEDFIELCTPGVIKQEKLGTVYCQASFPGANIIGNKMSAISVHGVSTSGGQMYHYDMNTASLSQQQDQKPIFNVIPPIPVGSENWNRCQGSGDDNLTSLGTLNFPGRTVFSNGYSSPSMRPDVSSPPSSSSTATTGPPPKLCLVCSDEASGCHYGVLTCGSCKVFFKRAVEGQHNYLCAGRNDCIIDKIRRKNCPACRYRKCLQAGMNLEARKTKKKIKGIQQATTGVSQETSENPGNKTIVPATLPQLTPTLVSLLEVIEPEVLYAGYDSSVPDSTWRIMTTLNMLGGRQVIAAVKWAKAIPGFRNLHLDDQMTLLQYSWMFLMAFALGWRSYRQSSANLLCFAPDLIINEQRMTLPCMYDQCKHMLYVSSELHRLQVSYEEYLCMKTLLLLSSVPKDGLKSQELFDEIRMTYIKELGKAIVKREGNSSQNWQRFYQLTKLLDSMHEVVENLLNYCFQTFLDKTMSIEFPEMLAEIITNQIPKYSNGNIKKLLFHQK

[9] = target: T2, Neuropeptide Y receptor type 1 (Homo sapiens, UniProt P25929)
T2 sequence (P25929 whole entry): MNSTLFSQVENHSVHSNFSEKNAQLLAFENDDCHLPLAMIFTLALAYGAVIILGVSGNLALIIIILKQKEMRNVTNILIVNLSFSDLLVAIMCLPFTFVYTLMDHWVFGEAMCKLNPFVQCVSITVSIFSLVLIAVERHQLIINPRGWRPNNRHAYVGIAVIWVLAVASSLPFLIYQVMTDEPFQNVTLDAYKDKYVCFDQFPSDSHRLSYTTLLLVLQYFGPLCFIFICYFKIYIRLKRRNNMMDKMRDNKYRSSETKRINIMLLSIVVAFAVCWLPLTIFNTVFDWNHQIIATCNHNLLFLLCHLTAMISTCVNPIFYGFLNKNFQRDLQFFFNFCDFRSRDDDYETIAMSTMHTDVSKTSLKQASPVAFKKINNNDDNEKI

[10] = target: T3, Equilibrative nucleoside transporter 1 (Homo sapiens, UniProt Q99808)
T3 sequence (Q99808 whole entry): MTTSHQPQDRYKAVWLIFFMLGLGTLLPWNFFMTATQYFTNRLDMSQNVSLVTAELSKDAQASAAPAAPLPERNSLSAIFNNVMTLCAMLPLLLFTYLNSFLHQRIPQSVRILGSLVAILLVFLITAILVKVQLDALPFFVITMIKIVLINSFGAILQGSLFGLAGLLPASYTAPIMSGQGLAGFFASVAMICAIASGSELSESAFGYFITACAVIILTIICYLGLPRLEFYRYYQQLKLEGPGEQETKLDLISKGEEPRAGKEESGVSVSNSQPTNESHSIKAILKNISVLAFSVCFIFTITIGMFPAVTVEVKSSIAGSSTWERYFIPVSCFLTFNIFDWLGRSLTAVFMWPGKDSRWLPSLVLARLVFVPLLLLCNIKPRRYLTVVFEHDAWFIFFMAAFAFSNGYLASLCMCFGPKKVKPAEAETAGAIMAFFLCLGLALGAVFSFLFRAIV

[11] = target: Voltage-dependent L-type calcium channel subunit alpha-1C (Rattus norvegicus, UniProt P22002); type: functional
Chain of Voltage-dependent L-type calcium channel subunit alpha-1C (P22002 whole entry): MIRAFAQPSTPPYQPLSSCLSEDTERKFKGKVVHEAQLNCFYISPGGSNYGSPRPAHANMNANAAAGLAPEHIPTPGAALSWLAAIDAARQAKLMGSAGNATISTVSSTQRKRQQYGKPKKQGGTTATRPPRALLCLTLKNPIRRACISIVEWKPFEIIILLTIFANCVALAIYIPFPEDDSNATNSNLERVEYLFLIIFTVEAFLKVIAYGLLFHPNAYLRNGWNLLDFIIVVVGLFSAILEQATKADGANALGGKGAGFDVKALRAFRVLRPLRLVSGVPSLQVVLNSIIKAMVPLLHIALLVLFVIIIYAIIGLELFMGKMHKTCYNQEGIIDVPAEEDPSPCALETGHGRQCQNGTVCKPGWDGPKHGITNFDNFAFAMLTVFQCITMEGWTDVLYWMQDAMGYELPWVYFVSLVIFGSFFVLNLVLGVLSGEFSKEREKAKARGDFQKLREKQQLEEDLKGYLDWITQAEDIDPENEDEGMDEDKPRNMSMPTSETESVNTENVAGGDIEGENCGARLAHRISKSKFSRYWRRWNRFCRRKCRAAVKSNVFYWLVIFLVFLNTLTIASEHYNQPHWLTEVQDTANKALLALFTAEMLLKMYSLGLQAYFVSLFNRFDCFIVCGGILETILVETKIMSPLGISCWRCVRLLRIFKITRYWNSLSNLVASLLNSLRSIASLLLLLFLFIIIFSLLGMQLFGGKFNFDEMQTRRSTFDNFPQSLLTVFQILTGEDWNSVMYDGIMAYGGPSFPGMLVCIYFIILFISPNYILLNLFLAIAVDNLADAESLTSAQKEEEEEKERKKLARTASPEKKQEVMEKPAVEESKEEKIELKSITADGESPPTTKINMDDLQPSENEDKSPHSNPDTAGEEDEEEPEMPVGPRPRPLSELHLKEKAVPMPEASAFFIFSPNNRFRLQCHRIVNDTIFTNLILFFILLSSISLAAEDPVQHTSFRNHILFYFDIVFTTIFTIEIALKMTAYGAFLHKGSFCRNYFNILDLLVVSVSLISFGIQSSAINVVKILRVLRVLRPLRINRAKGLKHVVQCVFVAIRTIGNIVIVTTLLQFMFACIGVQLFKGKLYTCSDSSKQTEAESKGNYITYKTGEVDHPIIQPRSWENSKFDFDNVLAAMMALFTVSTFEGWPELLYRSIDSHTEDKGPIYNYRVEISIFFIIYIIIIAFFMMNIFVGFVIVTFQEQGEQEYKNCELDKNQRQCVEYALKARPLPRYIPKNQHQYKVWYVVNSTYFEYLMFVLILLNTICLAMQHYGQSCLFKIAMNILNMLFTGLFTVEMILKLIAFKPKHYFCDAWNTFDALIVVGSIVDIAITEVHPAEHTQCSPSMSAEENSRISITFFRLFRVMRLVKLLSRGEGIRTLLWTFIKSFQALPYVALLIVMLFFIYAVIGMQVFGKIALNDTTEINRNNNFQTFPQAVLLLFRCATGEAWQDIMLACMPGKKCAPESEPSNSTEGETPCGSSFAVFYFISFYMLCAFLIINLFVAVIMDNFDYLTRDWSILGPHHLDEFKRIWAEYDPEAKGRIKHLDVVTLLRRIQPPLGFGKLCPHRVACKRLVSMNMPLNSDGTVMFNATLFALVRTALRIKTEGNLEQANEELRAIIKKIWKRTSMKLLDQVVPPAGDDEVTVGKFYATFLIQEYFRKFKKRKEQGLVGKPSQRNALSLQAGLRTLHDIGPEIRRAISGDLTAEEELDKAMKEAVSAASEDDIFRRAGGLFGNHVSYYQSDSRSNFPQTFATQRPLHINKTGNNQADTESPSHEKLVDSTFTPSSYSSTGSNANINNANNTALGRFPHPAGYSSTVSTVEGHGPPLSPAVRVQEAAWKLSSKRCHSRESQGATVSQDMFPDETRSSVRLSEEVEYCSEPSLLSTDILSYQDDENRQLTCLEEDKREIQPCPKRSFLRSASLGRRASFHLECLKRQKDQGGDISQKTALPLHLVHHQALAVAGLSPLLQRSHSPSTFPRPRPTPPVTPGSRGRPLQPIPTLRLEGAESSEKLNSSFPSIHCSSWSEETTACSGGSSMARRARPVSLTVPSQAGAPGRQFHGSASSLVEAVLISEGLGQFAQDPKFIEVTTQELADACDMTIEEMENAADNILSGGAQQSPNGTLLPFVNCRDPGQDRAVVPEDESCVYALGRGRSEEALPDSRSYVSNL

[12] = target: T4, Endothelin-1 receptor (Homo sapiens, UniProt P25101)
T4 sequence (P25101 whole entry): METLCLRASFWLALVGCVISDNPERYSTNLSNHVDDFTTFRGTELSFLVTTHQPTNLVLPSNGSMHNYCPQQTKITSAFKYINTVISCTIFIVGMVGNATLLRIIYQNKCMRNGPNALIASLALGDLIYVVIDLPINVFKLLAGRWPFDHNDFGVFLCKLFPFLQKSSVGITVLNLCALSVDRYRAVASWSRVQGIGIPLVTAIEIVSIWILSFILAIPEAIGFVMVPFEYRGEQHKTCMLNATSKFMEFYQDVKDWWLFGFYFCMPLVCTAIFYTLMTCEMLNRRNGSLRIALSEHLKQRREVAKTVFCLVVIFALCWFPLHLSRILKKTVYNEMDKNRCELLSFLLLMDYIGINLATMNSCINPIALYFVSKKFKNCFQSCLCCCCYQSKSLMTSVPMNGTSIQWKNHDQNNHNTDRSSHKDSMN

[13] = target: T5, Type-1 angiotensin II receptor (Homo sapiens, UniProt P30556)
T5 sequence (P30556 whole entry): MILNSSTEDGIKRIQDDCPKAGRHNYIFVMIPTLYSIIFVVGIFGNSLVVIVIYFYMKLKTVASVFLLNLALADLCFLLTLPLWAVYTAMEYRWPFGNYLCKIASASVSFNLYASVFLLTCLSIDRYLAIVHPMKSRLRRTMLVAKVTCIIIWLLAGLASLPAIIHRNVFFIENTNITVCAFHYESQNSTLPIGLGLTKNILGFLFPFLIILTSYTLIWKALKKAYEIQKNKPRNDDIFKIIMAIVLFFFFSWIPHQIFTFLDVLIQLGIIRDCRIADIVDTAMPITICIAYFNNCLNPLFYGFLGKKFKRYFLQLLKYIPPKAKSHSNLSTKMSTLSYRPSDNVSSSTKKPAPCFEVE

[14] = target: Sodium-dependent serotonin transporter (Homo sapiens, UniProt P31645)
Chain of Sodium-dependent serotonin transporter (P31645 whole entry): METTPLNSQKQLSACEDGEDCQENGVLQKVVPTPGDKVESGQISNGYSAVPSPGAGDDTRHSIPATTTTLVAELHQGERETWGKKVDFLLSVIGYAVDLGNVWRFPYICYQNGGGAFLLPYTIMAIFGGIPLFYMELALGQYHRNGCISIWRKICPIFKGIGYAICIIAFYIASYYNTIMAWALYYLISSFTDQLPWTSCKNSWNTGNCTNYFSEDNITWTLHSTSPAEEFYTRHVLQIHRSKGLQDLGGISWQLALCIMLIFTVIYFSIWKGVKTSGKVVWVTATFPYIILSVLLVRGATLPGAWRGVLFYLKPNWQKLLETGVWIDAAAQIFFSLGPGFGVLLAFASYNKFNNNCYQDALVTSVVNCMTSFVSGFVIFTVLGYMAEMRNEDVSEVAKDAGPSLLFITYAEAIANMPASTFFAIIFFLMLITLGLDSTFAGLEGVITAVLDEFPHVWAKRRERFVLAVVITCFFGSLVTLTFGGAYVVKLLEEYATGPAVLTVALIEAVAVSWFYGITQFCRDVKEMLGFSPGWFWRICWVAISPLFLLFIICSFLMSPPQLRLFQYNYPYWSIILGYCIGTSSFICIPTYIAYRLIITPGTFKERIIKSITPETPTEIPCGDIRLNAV
Also: assay procedure not described here.

Chain of 5-hydroxytryptamine receptor 2A (P28223 whole entry): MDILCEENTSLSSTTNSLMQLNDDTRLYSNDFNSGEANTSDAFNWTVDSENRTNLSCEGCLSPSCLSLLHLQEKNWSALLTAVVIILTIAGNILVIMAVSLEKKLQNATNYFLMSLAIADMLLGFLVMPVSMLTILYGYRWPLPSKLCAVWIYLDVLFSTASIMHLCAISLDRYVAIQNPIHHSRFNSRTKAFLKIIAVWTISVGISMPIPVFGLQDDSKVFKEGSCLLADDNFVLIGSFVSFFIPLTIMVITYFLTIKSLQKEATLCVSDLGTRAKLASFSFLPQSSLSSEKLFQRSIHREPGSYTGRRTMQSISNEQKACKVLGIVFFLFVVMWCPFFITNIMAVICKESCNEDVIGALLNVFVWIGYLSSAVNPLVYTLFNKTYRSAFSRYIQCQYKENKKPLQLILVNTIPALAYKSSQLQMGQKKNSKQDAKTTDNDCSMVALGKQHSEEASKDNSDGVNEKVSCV
Chain of Delta-type opioid receptor (P41143 whole entry): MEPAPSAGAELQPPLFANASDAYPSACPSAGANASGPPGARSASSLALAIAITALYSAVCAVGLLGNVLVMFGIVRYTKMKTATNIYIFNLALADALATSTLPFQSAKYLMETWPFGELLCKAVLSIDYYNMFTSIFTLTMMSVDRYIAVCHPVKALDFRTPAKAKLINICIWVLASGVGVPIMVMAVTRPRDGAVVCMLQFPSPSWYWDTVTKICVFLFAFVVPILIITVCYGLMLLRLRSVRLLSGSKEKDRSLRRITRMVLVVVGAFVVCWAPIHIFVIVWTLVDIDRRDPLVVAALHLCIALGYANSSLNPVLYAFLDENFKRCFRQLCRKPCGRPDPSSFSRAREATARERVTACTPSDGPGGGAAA

| Compound | AC50 [1] [µM] | AC50 ([2]; human, cellular components) [µM] | AC50 [3] [µM] | AC50 [4] [µM] | AC50 [5] [µM] | AC50 [6] [µM] | AC50 [7] [µM] | AC50 [8] [µM] | AC50 [9] [µM] | AC50 [10] [µM] | AC50 [11] [µM] | AC50 ([2]; read-out: AC50) [µM] | AC50 [12] [µM] | AC50 [13] [µM] | AC50 [14] [µM] |
| --- | --- | --- | --- | --- | --- | --- | --- | --- | --- | --- | --- | --- | --- | --- | --- |
| COLISTIN | > 30 | > 30 | > 30 | > 30 | > 30 |  |  |  |  |  |  |  |  |  |  |
| [H]/N=C(/N)N[C@H]1[C@H](O)[C@@H](O)[C@H](O[C@@H]2O[C@@H](C)[C@](O)(C=O)[C@H]2O[C@@H]2O[C@@H](CO)[C@H](O)[C@@H](O)[C@@H]2NC)[C@@H](N/C(N)=N\[H])[C@@H]1O [STREPTOMYCIN] | > 30 |  | > 30 |  | > 30 | > 30 | > 30 | > 30 | > 30 | > 30 | > 30 | > 30 | > 30 | > 30 |  |
| CN1c2ccccc2C(NCCCCCCC(=O)O)c2ccc(Cl)cc2S1(=O)=O (configuration not stated) [TIANEPTINE] | > 30 |  | 28 | > 30 | > 30 | > 30 | > 30 | > 30 | > 30 |  |  |  | > 30 | > 30 |  |
| COc1cc2nccc(Oc3ccc(NC(=O)Nc4cc(C)on4)c(Cl)c3)c2cc1OC [TIVOZANIB] |  |  |  | 24 |  |  |  |  |  | > 3 |  | > 1 |  |  |  |
| Clc1ccc2c(c1)C(c1ccccc1)=NCc1nncn1-2 [ESTAZOLAM] | > 10 |  | > 30 |  | > 10 | > 30 | > 10 | > 30 | > 30 | > 30 | > 10 | > 30 |  | > 30 | > 30 |
| N[C@H](Cc1cc(I)c(Oc2cc(I)c(O)c(I)c2)c(I)c1)C(=O)O [DEXTROTHYROXINE] | > 10 |  | > 30 |  | > 10 | > 30 | > 10 | 25 | > 30 | > 30 | > 10 | > 30 | > 30 | > 30 | > 30 |
| Clc1ccc(C(Cn2ccnc2)OCc2ccc(Sc3ccccc3)cc2)c(Cl)c1 (configuration not stated) [FENTICONAZOLE] | > 30 |  | > 30 |  | > 30 | > 30 | 23 | > 30 | 30 | > 30 | 12 | 1.45 | > 30 | 23 |  |
